# Entries after “also recorded” stand apart in the source; their conditions may differ. Counter-ions that a name gives are not always drawn.
# Assays:
# [1] = target: T1, Nterm-phos activity of human sEH (Homo sapiens, UniProt P34913); experiment: AttoPhos assay in kinetic mode; format: biochemical
# T1 sequence (P34913 1-555): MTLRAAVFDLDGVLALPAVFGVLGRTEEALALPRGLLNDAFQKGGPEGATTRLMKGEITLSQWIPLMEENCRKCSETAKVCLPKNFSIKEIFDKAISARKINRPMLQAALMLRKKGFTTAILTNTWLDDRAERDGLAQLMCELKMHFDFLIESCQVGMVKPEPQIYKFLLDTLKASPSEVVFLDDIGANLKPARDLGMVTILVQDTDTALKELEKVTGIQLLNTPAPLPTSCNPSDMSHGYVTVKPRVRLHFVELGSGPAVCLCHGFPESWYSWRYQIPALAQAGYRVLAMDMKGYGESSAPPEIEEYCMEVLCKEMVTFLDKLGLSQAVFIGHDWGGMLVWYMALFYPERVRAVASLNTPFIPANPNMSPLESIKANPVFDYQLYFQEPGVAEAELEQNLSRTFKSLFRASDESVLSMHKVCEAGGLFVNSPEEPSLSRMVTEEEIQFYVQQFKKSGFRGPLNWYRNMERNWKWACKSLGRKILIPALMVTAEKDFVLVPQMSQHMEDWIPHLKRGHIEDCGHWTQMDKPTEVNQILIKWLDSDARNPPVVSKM
# [2] = target: T1, Nterm-phos activity of human sEH; experiment: AttoPhos fluorescent endpoint HTS assay for sEH phosphatase activity; format: biochemical; conditions: for inhibition at 10 µM: read-out: inhibition of Nterm-phos in library screen; for Nominal Inhibition (%): [E] 2.1 nM, AttoPhos 25 μM, 60 min, 96-well; for inhibition of Nterm-phos in library screen: pesticide library
# [3] = cited from earlier work
# human microsomal EH = target: T2, human microsomal EH (Homo sapiens, UniProt P07099); experiment: Selectivity: microsomal EH inhibition; format: biochemical
# T2 sequence (P07099 1-455): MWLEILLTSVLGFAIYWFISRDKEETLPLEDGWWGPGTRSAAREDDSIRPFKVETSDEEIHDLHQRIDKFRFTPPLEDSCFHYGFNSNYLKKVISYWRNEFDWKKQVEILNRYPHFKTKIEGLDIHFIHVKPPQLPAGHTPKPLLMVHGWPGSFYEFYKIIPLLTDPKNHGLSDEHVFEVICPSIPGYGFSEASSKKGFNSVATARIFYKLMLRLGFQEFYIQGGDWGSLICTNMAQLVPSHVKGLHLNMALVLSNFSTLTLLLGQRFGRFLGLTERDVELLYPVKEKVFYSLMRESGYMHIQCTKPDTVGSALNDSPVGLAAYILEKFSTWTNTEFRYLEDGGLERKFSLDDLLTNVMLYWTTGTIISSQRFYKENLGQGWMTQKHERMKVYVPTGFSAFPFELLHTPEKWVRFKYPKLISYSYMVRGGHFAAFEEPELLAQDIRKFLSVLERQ
# [4] = target: T3, Cterm-EH activity of human sEH (Homo sapiens, UniProt P34913); experiment: Kinetic constants with a model of irreversible inhibition, PHOME 50 μM; format: biochemical; conditions: n = 3
# T3 sequence (P34913 1-555): T1 sequence (P34913 1-555)
# Cterm-EH expressed alone = target: T4, Cterm-EH expressed alone (Homo sapiens, UniProt P34913); experiment: Inhibition of the C-terminal domain expressed separately; format: biochemical; conditions: 10 μM for 5 min
# T4 sequence (P34913 235-555 limits assumed): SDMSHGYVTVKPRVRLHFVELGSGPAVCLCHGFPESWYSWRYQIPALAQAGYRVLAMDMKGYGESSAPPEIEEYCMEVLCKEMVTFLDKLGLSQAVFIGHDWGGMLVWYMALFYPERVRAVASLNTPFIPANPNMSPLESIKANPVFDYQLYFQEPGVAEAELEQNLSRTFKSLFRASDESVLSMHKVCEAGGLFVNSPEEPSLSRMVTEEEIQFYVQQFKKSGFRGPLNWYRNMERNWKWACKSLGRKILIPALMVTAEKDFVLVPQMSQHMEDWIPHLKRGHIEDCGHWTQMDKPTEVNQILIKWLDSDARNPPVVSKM
# [5] = tested on: a series of esterases and amidases; experiment: Selectivity: esterases and amidases inhibition; format: biochemical
# [6] = target: T1, Nterm-phos activity of human sEH; experiment: Reversibility; format: biochemical
# [7] = target: T3, Cterm-EH activity of human sEH; experiment: Inhibition of sEH epoxide hydrolase activity; format: biochemical; conditions: for IC50: IC50 for Cterm-EH
# [8] = target: T5, Nterm-phos expressed alone (Homo sapiens, UniProt P34913); experiment: Inhibition of the N-terminal domain expressed separately; format: biochemical; conditions: 10 μM for 5 min
# T5 sequence (P34913 1-224 limits assumed): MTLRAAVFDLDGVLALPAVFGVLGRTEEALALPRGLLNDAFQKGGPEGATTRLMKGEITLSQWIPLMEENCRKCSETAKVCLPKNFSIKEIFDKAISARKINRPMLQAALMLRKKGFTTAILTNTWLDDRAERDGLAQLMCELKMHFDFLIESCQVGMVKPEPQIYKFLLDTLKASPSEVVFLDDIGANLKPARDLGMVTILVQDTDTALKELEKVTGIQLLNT
# [9] = target: T1, Nterm-phos activity of human sEH; experiment: Kinetic constants with a model of irreversible inhibition, AttoPhos 25 μM; format: biochemical
# [10] = tested on: human alkaline phosphatase; experiment: Selectivity: alkaline phosphatase inhibition; format: biochemical
# [11] = target: T3, Cterm-EH activity of human sEH; experiment: Reversibility; format: biochemical
# [12] = read-out: IC50 (nominal inhibition column), nominal / overall value
# [13] = read-out: IC50 Day 1, Day 1, 3 plates
# [14] = read-out: IC50 Day 2, Day 2, 3 plates
# [15] = read-out: IC50 Day 3, Day 3, 3 plates
# [16] = 20 nM human sEH with 10 μM for 15 min, then dialysis
# [17] = 5 mM glutathione before 10 μM for 5 min
structure (smiles),measurement,setting,value
S=C(S)NCCNC(=S)S [Nabam],IC50,[1],> 100000 nM
same,inhibition at 10 µM,[2],> 50%
"CCCCCCCCCCCCS(=O)(=O)O [C00002, dodecyl sulfonate]",Nominal Inhibition (%),[2]; [I] 1.6 μM,9 ± 6%
same,Nominal Inhibition (%),[2]; [I] 3.1 μM,26 ± 4%
same,Nominal Inhibition (%),[2]; [I] 6.3 μM,54 ± 4%
same,Nominal Inhibition (%),[2]; [I] 12.5 μM,78 ± 3%
same,Nominal Inhibition (%),[2]; [I] 25 μM,89 ± 1%
same,IC50,[2]; [12],6600 ± 800 nM
same,IC50,[2]; [13],6300 ± 300 nM
same,IC50,[2]; [14],6100 ± 300 nM
same,IC50,[2]; [15],7500 ± 1200 nM
CCCCC(CC)CCC(CC(C)C)OS(=O)(=O)O (stereo not shown) [sodium tetradecyl sulfate],critical micelle concentration,[3],around 2 mM
"CCCCCCCCCCCCOP(=O)(O)O [C00003, dodecyl phosphoric acid]",inhibition of Nterm-phos in library screen,[2]; 1 μM,more than 50%
same,inhibition of Nterm-phos in library screen,[2]; 10 μM,more than 50%
same,Nominal Inhibition (%),[2]; [I] 0.8 μM,19 ± 4%
same,Nominal Inhibition (%),[2]; [I] 1.6 μM,39 ± 5%
same,Nominal Inhibition (%),[2]; [I] 3.1 μM,70 ± 3%
same,Nominal Inhibition (%),[2]; [I] 6.3 μM,91 ± 1%
same,Nominal Inhibition (%),[2]; [I] 12.5 μM,98 ± 1%
same,IC50,[2]; [12],2200 ± 300 nM
same,IC50,[2]; [13],1800 ± 200 nM
same,IC50,[2]; [14],2300 ± 200 nM
same,IC50,[2]; [15],2400 ± 100 nM
O=C1c2ccccc2C(=O)N1SC(Cl)(Cl)Cl [Folpet],IC50,[1],25000 ± 3000 nM
same,inhibition at 10 µM,[2],> 50%
CC(=O)N1CCN(c2ccc(OCC3COC(Cn4ccnc4)(c4ccc(Cl)cc4Cl)O3)cc2)CC1 (stereo not shown) [ketoconazole],IC50,[1],> 100000 nM
O=C(O)c1ccccc1C(=O)Nc1ccc(S(=O)(=O)Nc2nccs2)cc1 [phthalyl-sulfathiazole],IC50,[1],> 100000 nM
O=c1c2ccccc2[se]n1-c1ccccc1 [ebselen],inhibition of human microsomal EH,human microsomal EH,not the other enzymes tested
same,"first-order formation rate of the covalent enzyme-inhibitor complex (ki), Cterm-EH",[4],0.39 ± 0.07 min⁻¹
same,inhibition of Cterm-EH expressed alone,Cterm-EH expressed alone,did not significantly inhibit
same,inhibition of esterases and amidases,[5],not the other enzymes tested
same,time to stable inhibition of Nterm-phos,[6],less than a minute
same,recovery of Nterm-phos activity after dialysis,[6]; [16],not able to recover any
same,effect of glutathione pretreatment on Nterm-phos activity,[6]; [17],protected
same,IC50 ratio Cterm-EH over Nterm-phos,[7],5 fold
same,IC50,[7]; incubation time 1 min,2000 ± 300 nM
same,IC50,[7]; incubation time 15 min,850 ± 50 nM
same,inhibition of Nterm-phos expressed alone,[8],totally inhibited
same,Ki,[9],550 nM
same,"ratio of ki, Nterm-phos over Cterm-EH",[9],around 7 fold
same,"first-order formation rate of the covalent enzyme-inhibitor complex (ki), Nterm-phos",[9]; n = 3,2.58 ± 0.05 min⁻¹
same,IC50,[1],400 ± 20 nM
same,inhibition of human alkaline phosphatase,[10],did not inhibit; also recorded: not the other enzymes tested
same,recovery of Cterm EH activity after dialysis,[11]; [16],not able to recover any
same,effect of glutathione pretreatment on Cterm-EH activity,[11]; [17],protected
same,Cterm-EH activity recovered on glutathione added after exposure,[11]; glutathione added 5 min after exposure,30%

# Source: publication PMC3557602 (Analytical biochemistry, 2012)
